Reference: patent US12208092B2, “Compositions and methods for administering paltusotine to patients with hepatic impairment” (CRINETICS PHARMACEUTICALS, INC., priority 2023, dated 2025)

Test: Phase 1 hepatic impairment study, safety (TEAEs) after single oral 20 mg tablet
[1] = normal hepatic function (N = 14)
[2] = severe hepatic impairment (N = 6)

Experimental: The secondary objective of the study was to assess the safety and tolerability of a single dose of paltusotine in subjects with varying degrees of hepatic impairment.
Safety and tolerability were assessed by the following endpoints: reported adverse events (AEs), clinical laboratory test results (hematology, coagulation, serum chemistry, and urinalysis), vital sign measurements, and 12-lead electrocardiogram results
All 36 subjects who were enrolled in the study received all planned single doses of paltusotine 20 mg (1×20 mg tablet) and were included in the safety and PK analysis populations.

N#Cc1cccc(-c2ccc3ncc(-c4cc(F)cc(F)c4)c(N4CCC(N)CC4)c3c2)c1O [paltusotine, 3-[4-(4-amino-1-piperidyl)-3-(3,5-difluorophenyl)-6-quinolyl]-2-hydroxybenzonitrile]
7 (19.4%): TEAE SOC Gastrointestinal disorders, subjects n (%) (overall (N = 36))
8: TEAE SOC Gastrointestinal disorders, number of occurrences (overall (N = 36))
3 (8.3%): TEAE SOC Nervous system disorders, subjects n (%) (overall (N = 36)) | TEAEs by maximum severity: Moderate, subjects n (%) (overall (N = 36))
13: TEAEs Related to study drug, number of occurrences (overall (N = 36))
12: TEAEs by maximum severity: Mild, number of occurrences (overall (N = 36))
4: TEAEs Not Related to study drug, number of occurrences (overall (N = 36)) | TEAEs by maximum severity: Moderate, number of occurrences (overall (N = 36)) | Any TEAE, number of occurrences [2] | Total number of TEAEs reported [2]
1: TEAE SOC Nervous system disorders, number of occurrences [1] | TEAEs Not Related to study drug, number of occurrences [1] | TEAEs by maximum severity: Moderate, number of occurrences [1] | Any SAEs, number of occurrences (overall (N = 36)) | Related TEAE Abdominal discomfort, number of occurrences (overall (N = 36)) | Related TEAE Epigastric discomfort, number of occurrences (overall (N = 36)) | Related TEAE Fatigue, number of occurrences (overall (N = 36)) | Related TEAE Haematuria, number of occurrences (overall (N = 36)) | Related TEAE Headache, number of occurrences (overall (N = 36)) | Related TEAE Neutropenia, number of occurrences (overall (N = 36)) | Related TEAE Pain, number of occurrences (overall (N = 36)) | Related TEAE Paraesthesia, number of occurrences (overall (N = 36)) | SAEs Not related to study drug, number of occurrences (overall (N = 36)) | TEAE Abdominal discomfort, number of occurrences (overall (N = 36)) | TEAE COVID-19, number of occurrences (overall (N = 36)) | TEAE Death, number of occurrences (overall (N = 36)) | TEAE Epigastric discomfort, number of occurrences (overall (N = 36)) | TEAE Fatigue, number of occurrences (overall (N = 36)) | TEAE Haematuria, number of occurrences (overall (N = 36)) | TEAE Neutropenia, number of occurrences (overall (N = 36)) | TEAE Pain, number of occurrences (overall (N = 36)) | TEAE Paraesthesia, number of occurrences (overall (N = 36)) | TEAE SOC Blood and lymphatic system disorders, number of occurrences (overall (N = 36)) | TEAE SOC Infections and infestations, number of occurrences (overall (N = 36)) | TEAE SOC Renal and urinary disorders, number of occurrences (overall (N = 36)) | TEAEs by maximum severity: Severe, number of occurrences (overall (N = 36)) | Total number of SAEs reported (overall (N = 36)) | Related TEAE Diarrhea, number of occurrences [2] | Related TEAE Neutropenia, number of occurrences [2] | TEAE COVID-19, number of occurrences [2] | TEAE Diarrhea, number of occurrences [2] | TEAE Headache, number of occurrences [2] | TEAE Neutropenia, number of occurrences [2] | TEAE SOC Blood and lymphatic system disorders, number of occurrences [2] | TEAE SOC Gastrointestinal disorders, number of occurrences [2] | TEAE SOC Infections and infestations, number of occurrences [2] | TEAE SOC Nervous system disorders, number of occurrences [2]
4 (28.6%): TEAE SOC Gastrointestinal disorders, subjects n (%) [1]
1 (16.7%): Related TEAE Diarrhea, subjects n (%) [2] | Related TEAE Neutropenia, subjects n (%) [2] | TEAE COVID-19, subjects n (%) [2] | TEAE Diarrhea, subjects n (%) [2] | TEAE Headache, subjects n (%) [2] | TEAE Neutropenia, subjects n (%) [2] | TEAE SOC Blood and lymphatic system disorders, subjects n (%) [2] | TEAE SOC Gastrointestinal disorders, subjects n (%) [2] | TEAE SOC Infections and infestations, subjects n (%) [2] | TEAE SOC Nervous system disorders, subjects n (%) [2] | TEAEs by maximum severity: Mild, subjects n (%) [2] | TEAEs by maximum severity: Moderate, subjects n (%) [2]
6: Total number of TEAEs reported [1] | TEAE Diarrhea, number of occurrences (overall (N = 36))
3: TEAE SOC General disorders and administration site conditions, number of occurrences (overall (N = 36)) | TEAE SOC Nervous system disorders, number of occurrences (overall (N = 36))
1 (7.1%): TEAE SOC Nervous system disorders, subjects n (%) [1] | TEAEs Not Related to study drug (strongest relationship), subjects n (%) [1] | TEAEs by maximum severity: Moderate, subjects n (%) [1]
17: Any TEAE, number of occurrences (overall (N = 36)) | Total number of TEAEs reported (overall (N = 36))
6 (16.7%): TEAE Diarrhea, subjects n (%) (overall (N = 36)) | TEAEs by maximum severity: Mild, subjects n (%) (overall (N = 36))
3 (21.4%): TEAEs Related to study drug (strongest relationship), subjects n (%) [1] | TEAEs by maximum severity: Mild, subjects n (%) [1]
2 (33.3%): Subjects reporting any TEAE, subjects n (%) [2] | TEAEs Related to study drug (strongest relationship), subjects n (%) [2]
0: TEAE SOC General disorders and administration site conditions, subjects n (%) [1] | TEAE SOC Infections and infestations, subjects n (%) [1] | TEAE SOC Renal and urinary disorders, subjects n (%) [1] | TEAEs by maximum severity: Severe, subjects n (%) [1] | Total number of SAEs reported [1] | SAEs Related to study drug (strongest relationship), subjects (overall (N = 36)) | Related TEAE Abdominal discomfort, subjects n (%) [2] | Related TEAE Epigastric discomfort, subjects n (%) [2] | Related TEAE Fatigue, subjects n (%) [2] | Related TEAE Haematuria, subjects n (%) [2] | Related TEAE Headache, subjects n (%) [2] | Related TEAE Pain, subjects n (%) [2] | Related TEAE Paraesthesia, subjects n (%) [2] | SAEs Not related to study drug (strongest relationship), subjects n (%) [2] | SAEs Related to study drug (strongest relationship), subjects [2] | Subjects reporting any SAEs, subjects n (%) [2] | TEAE Abdominal discomfort, subjects n (%) [2] | TEAE Death, subjects n (%) [2] | TEAE Epigastric discomfort, subjects n (%) [2] | TEAE Fatigue, subjects n (%) [2] | TEAE Haematuria, subjects n (%) [2] | TEAE Pain, subjects n (%) [2] | TEAE Paraesthesia, subjects n (%) [2] | TEAE SOC General disorders and administration site conditions, subjects n (%) [2] | TEAE SOC Renal and urinary disorders, subjects n (%) [2] | TEAEs Not Related to study drug (strongest relationship), subjects n (%) [2] | TEAEs by maximum severity: Severe, subjects n (%) [2] | Total number of SAEs reported [2]
2: TEAE Headache, number of occurrences (overall (N = 36)) | TEAEs Related to study drug, number of occurrences [2] | TEAEs by maximum severity: Mild, number of occurrences [2] | TEAEs by maximum severity: Moderate, number of occurrences [2]
5: TEAE SOC Gastrointestinal disorders, number of occurrences [1] | TEAEs Related to study drug, number of occurrences [1] | TEAEs by maximum severity: Mild, number of occurrences [1] | Related TEAE Diarrhea, number of occurrences (overall (N = 36))
5 (13.9%): Related TEAE Diarrhea, subjects n (%) (overall (N = 36))
2 (5.6%): TEAE Headache, subjects n (%) (overall (N = 36)) | TEAE SOC General disorders and administration site conditions, subjects n (%) (overall (N = 36))
1 (2.8%): Related TEAE Abdominal discomfort, subjects n (%) (overall (N = 36)) | Related TEAE Epigastric discomfort, subjects n (%) (overall (N = 36)) | Related TEAE Fatigue, subjects n (%) (overall (N = 36)) | Related TEAE Haematuria, subjects n (%) (overall (N = 36)) | Related TEAE Headache, subjects n (%) (overall (N = 36)) | Related TEAE Neutropenia, subjects n (%) (overall (N = 36)) | Related TEAE Pain, subjects n (%) (overall (N = 36)) | Related TEAE Paraesthesia, subjects n (%) (overall (N = 36)) | SAEs Not related to study drug (strongest relationship), subjects n (%) (overall (N = 36)) | Subjects reporting any SAEs, subjects n (%) (overall (N = 36)) | TEAE Abdominal discomfort, subjects n (%) (overall (N = 36)) | TEAE COVID-19, subjects n (%) (overall (N = 36)) | TEAE Death, subjects n (%) (overall (N = 36)) | TEAE Epigastric discomfort, subjects n (%) (overall (N = 36)) | TEAE Fatigue, subjects n (%) (overall (N = 36)) | TEAE Haematuria, subjects n (%) (overall (N = 36)) | TEAE Neutropenia, subjects n (%) (overall (N = 36)) | TEAE Pain, subjects n (%) (overall (N = 36)) | TEAE Paraesthesia, subjects n (%) (overall (N = 36)) | TEAE SOC Blood and lymphatic system disorders, subjects n (%) (overall (N = 36)) | TEAE SOC Infections and infestations, subjects n (%) (overall (N = 36)) | TEAE SOC Renal and urinary disorders, subjects n (%) (overall (N = 36)) | TEAEs Not Related to study drug (strongest relationship), subjects n (%) (overall (N = 36)) | TEAEs by maximum severity: Severe, subjects n (%) (overall (N = 36))
